This is an account of results in article PMC12467740, “Synthesis, Characterization, and Screening Anticancer—Antibiofilm Activities of Theophylline Derivatives Containing CF3/OCF3 Moiety” (Biology, 2025).

A word on the IC50: it is the concentration at which inhibition is half-maximal.

Values joined by “and” are separate entries in the source; they are usually repeats but may differ in a detail not shown here. Equal values may be shown once.

For data set [1], the system named is CYP450. Conditions: cited from earlier work.
Data set [2] has as its system Enterococcus faecalis (ATCC 29212). The data set is described as follows: Broth microdilution MIC. Type of data set: cell-based. Particulars: ciprofloxacin 0.03125–64 µg/mL. The method, then:
(§1) The antibacterial activities of the compounds were determined using the broth microdilution method, as per the advice of international standards. […] Standard bacterial strains Staphylococcus aureus (ATCC 29213), Enterococcus faecalis (ATCC 29212), Escherichia coli (ATCC 25922), Pseudomonas aeruginosa (ATCC 27853), and yeast Candida albicans (ATCC 10231), were previously stored at −80 °C then revived at room temperature. Microorganisms were inoculated using overnight broth cultures. Stock solutions of the samples studied at a concentration of 1000 µg/mL were prepared with dimethyl sulfoxide (DMSO). An amount of 100 µL of Mueller Hinton Broth (Liofilchem, Italy) were dispensed into all wells of 96-well microplates. […] Serial dilutions of 0.00048–1% DMSO were made into a column of the microplate to determine its antimicrobial activity. 0.5 McFarland standard in physiological saline from each microorganism strains were prepared and 20 µL of the prepared suspension was added to the wells. An amount of 100 µL Mueller Hinton Broth in a column of the microplate served as a negative control and another column of the microplate containing 100 µL of Mueller Hinton Broth with 20 µL of each microorganism added served as a growth control. As positive controls, ciprofloxacin was applied against bacterial strains at a concentration range of 0.03125–64 µg/mL, and fluconazole was used against Candida albicans at a concentration range of 0.3125–640 µg/mL. The plates were covered with parafilm, incubated at 36.5 °C in an aerobic environment for 24 h. After incubation, the optical density was measured at 620 nm. The first concentration without microbial growth was determined as MIC and experiments were repeated twice.
A general note: In broth dilution the organism is exposed to a series of concentrations in liquid medium.

Data set [3] has as its system Escherichia coli (ATCC 25922). The data set is described as follows: Broth microdilution MIC. Format: cell-based. Conditions: ciprofloxacin 0.03125–64 µg/mL. On the procedure: as §1
Data set [4] relates to Pseudomonas aeruginosa (ATCC 27853). The data set is described as follows: Broth microdilution MIC. Format: cell-based. Particulars: ciprofloxacin 0.03125–64 µg/mL. On the procedure: as §1
The test system of data set [5] is Staphylococcus aureus (ATCC 29213). The data set is described as follows: Broth microdilution MIC. Format: cell-based. Particulars: ciprofloxacin 0.03125–64 µg/mL. The method, then: as §1
Data set [6] has as its system Escherichia coli. The data set is described as follows: Well plate biofilm formation assay (crystal violet). Format: cell-based. Particulars: over the concentration range given per compound (Table 4). On the procedure: (§2) The well plate assay was utilized to test the effectiveness of compounds in inhibiting biofilms made by microorganisms. An amount of 100 μL of Brucella broth (Remel, Lenexa, KS, USA) containing 1% and 20% glucose (Biolife, Milan, Italy), were dispensed into the test wells. In the next step, 100 μL of compounds ranging from 0.244 to 1000 μg/mL were poured into the wells. […] Then, 0.5 McFarland standard in physiological saline from each microorganism strain were prepared and 20 μL of the prepared suspension was added to the wells. A column of the microplate containing 100 μL Brucella broth served as a negative control and another column of the microplate containing 100 μL Brucella with 20 μL of each microorganism added served as a growth control. As positive controls, ciprofloxacin was applied against bacterial strains at a concentration range of 0.03125-64 μg/mL, and fluconazole was used against Candida albicans at a concentration range of 0.3125-640 μg/mL. Plates were left to incubate at 36.5 °C for a day. The plates were emptied and then washed three times with 300 μL of deionized water. The wells were left to dry for half an hour. The next step was staining with 0.1% (w/v) violet dye ([…]), cleaning three times with deionized water, and drying at room temperature. The crystal violet adhering to the wall of the wells was dissolved with 95% ethanol, and the optical density was measured at 570 nm. The test was run two times, and the mean value was calculated. Biofilm preventing (%) = {(ODb - ODc)/ODb} × 100.

In data set [7] the test system is Pseudomonas aeruginosa. The description is as above. Type of data set: cell-based. Particulars: over the concentration range given per compound (Table 4). The method, then:
as §2

Data set [8] relates to Staphylococcus aureus. The description is as above. Type of data set: cell-based. Particulars: over the concentration range given per compound (Table 4); 1c and 1e at 1000 µg/mL. On the procedure: as §2
For data set [9], the system named is Enterococcus faecalis. The description is as above. Type of data set: cell-based. Conditions: over the concentration range given per compound (Table 4). The method, then:
as §2

Data set [10] relates to BEAS-2B cells. The data set is described as follows: MTT cell viability assay, BEAS-2B. Format: cell-based. Conditions: Homo sapiens, 48 h, mean ± SD (n = 3). On the procedure: (§3) The anticancer potential of substituted theophylline derivatives was investigated using human lung carcinoma (A549, CCL-185) and cervical cancer (HeLa, CCL-2) cell lines obtained from the American Type Culture Collection (ATCC). To evaluate the selectivity of the tested compounds, cytotoxicity was also assessed in a healthy human bronchial epithelial cell line (BEAS-2B, ATCC CRL-9609). Cells were maintained in DMEM (Euroclone S.p.A., Pero, Italy supplemented with 10% fetal bovine serum (Sigma-Aldrich, St. Louis, MO, USA) and 1% penicillin–streptomycin (1%, Capricorn Scientific GmbH, Ebsdorfergrund, Germany at 37 °C in a humidified atmosphere containing 5% CO2. The theophylline-derived compounds (1a–1e) were dissolved in DMSO to prepare 100 mM stock solutions, which were then diluted with DMEM to obtain final working concentrations ranging from 3.125 µM to 100 µM. To evaluate cell viability, the MTT colorimetric assay was employed. Upon reaching logarithmic growth, A549, HeLa and BEAS-2B cells were seeded at a density of 7000 cells per well in 96-well microplates and allowed to attach for 24 h. Following this, cells were treated with different concentrations of the compounds and incubated for 48 h. After treatment, 100 µL of fresh medium and 20 µL of MTT reagent (5 mg/mL, Bio Basic Inc., Markham, ON, Canada) were added to each well, and cells were incubated for an additional 3 h. The resulting formazan crystals were solubilized with DMSO. Cell viability was calculated as the percentage of absorbance relative to untreated controls, and IC50 values were determined by nonlinear regression analysis using GraphPad Prism software, version 8.0 (GraphPad Software, San Diego, CA, USA. All experiments were performed in at least three independent replicates, and results are reported as mean ± SD. The percentage of inhibition was calculated based on the reduction in metabolic activity of the cells following compound treatment, as assessed by the MTT assay. The absorbance was measured at 570 nm using a microplate reader. The inhibition (%) was calculated using the following formula:Inhibition %=[1 − (Asample − Ablank)/[…]] × 100 To assess the tumor selectivity of the tested theophylline derivatives, the selectivity index (SI) was calculated for each compound. SI is defined as the ratio of the IC50 value in healthy (non-tumorigenic) cells to the IC50 value in cancer cells. In this study, IC50 values were determined for BEAS-2B (non-tumorigenic human bronchial epithelial cells) as a healthy control and for A549 (lung adenocarcinoma) and HeLa (cervical carcinoma) as tumor models. The SI was calculated according to the following equation:SI = [IC50, healthy/IC50, cancer]
(In general: Tetrazolium assays rely on reduction of a dye to a coloured formazan, in cell work by metabolically active cells.)

In data set [11] the test system is A549 cells. Nature of the data set: MTT cell viability assay, A549. Format: cell-based, human. Particulars: for IC50: MTT, 48 h, mean ± SD (n = 3). On the procedure:
as §3

Data set [12] relates to HeLa cells. Nature of the data set: MTT cell viability assay, HeLa. Format: cell-based, human. On the procedure: as §3
The test system of data set [13] is A549 cells. The data set is described as follows: RT-qPCR of apoptosis-related genes, A549. Type of data set: cell-based, human. Conditions: A549, IC50 concentration, 48 h, vs untreated control. The method, then:
(§4) Total RNA was isolated from cells using the RNeasy Mini Kit (Qiagen GmbH, Hilden, Germany) according to the manufacturer’s instructions. RNA quality and quantity were evaluated spectrophotometrically. Subsequently, cDNA synthesis was performed using the iScript™ cDNA Synthesis Kit (Bio-Rad Laboratories, Hercules, CA, USA).
(§5) RT-qPCR reactions (LightCycler® 480 Instrument II (Roche Diagnostics, Mannheim, Germany) were carried out using SYBR™ Green PCR Master Mix (Applied Biosystems, Foster City, CA, USA) and gene-specific primers targeting pro-apoptotic genes (CASP3, CASP8, CASP9, BAX, BAK1, PUMA, NOXA, CYCS), anti-apoptotic genes (BCL2, BCL-XL, MCL1), cell cycle/stress-related genes (TP53, CDKN1A/p21, GADD45A, ATF4), and the reference gene GAPDH. The primer sequences used for each gene are presented in the Supplementary File (Figure S66).
(§6) All reactions were conducted in triplicate, and negative controls (no-template controls, NTC) were included in each run. Relative gene expression levels were analyzed using the 2^−ΔΔCt method, and results were normalized to control samples (control expression set as ‘1’) and expressed as fold change relative to controls.
Background: In qPCR the cycle at which signal appears reflects the starting amount.

Data set [14] relates to HeLa cells. The data set is described as follows: RT-qPCR of apoptosis-related genes, HeLa. Format: cell-based, human. Particulars: IC50 concentration, 48 h, vs untreated control. The method, then:
as §4, §5, §6

The subject of data set [15] is A549 cells. Nature of the data set: ELISA of apoptosis-related proteins, A549. Format: cell-based, human. Particulars: A549, IC50, 48 h, vs untreated controls. The method, then: (§7) To validate the gene expression changes observed in the RT-qPCR analysis at the protein level, ELISA assays were conducted to measure the protein levels in A549 and HeLa cells. […] Following incubation, cells were washed with cold PBS and lysed using RIPA buffer supplemented with protease and phosphatase inhibitors. […] was removed by centrifugation at 14,000× g for 10 min. Total protein concentration in the cell lysates was determined spectrophotometrically using the BCA Protein Assay Kit (Thermo Scientific, Waltham, MA, USA). Protein concentrations were standardized to equal amounts across all samples prior to ELISA analysis. Commercially available Human ELISA Kit (Abcam, Cambridge, UK) were used to quantify Caspase-3, BAX, BCL-2, and Cytochrome C levels, and all assays were performed according to the manufacturers’ protocols. Absorbance was measured at 450 nm using a microplate reader. All experiments were conducted in triplicate. The results were normalized to the control group (control = 1) and expressed as fold change relative to untreated controls.

The test system of data set [16] is HeLa cells. Nature of the data set: ELISA of apoptosis-related proteins, HeLa. Particulars: IC50, 48 h, vs untreated controls. Format: cell-based, human. The method, then:
as §7

The test system of data set [17] is Candida albicans. Nature of the data set: Well plate biofilm formation assay (crystal violet). Type of data set: cell-based. Conditions: over the concentration range given per compound (Table 4). The method, then:
as §2

Data set [18] has as its system Candida albicans (ATCC 10231). The data set is described as follows: Broth microdilution MIC. Format: cell-based. Conditions: fluconazole 0.3125–640 µg/mL. On the procedure: as §1

In the case of `C[C@]12CC[C@H](O)CC1=CC[C@@H]1[C@@H]2CC[C@]2(C)C(c3cccnc3)=CC[C@@H]12` [Abiraterone], in data set [1], the “binding properties (docking)” value is -10.3 kcal/mol.
For `O=C(O)c1cn(C2CC2)c2cc(N3CCNCC3)c(F)cc2c1=O` [Ciprofloxacin, ciprofloxacin, reference compound], the “Microbial growth in positive control wells” value in data set [2], in data set [3], in [4] and in [5] was “no microbial growth was observed” in each case. Also, in [6], the “Antibiofilm activity Escherichia coli” value came out at 36.67%. The “Antibiofilm activity Pseudomonas aeruginosa” value in [7] was 35.79%. In addition, the “Antibiofilm activity Staphylococcus aureus” value in data set [8] is on record as 50.56%. Also, the “Antibiofilm activity Enterococcus faecalis” value in data set [9] worked out at 18.11%.
As to `Cn1c(=O)c2c(ncn2Cc2ccccc2C(F)(F)F)n(C)c1=O` [Compound 1a, 1,3-Dimethyl-7-(2-(trifluoromethyl)benzyl)-3,7-dihydro-1H-purine-2,6-dione], the concentration for half-maximal inhibition (IC50) in data set [10] was 100 ± 2 µM; in [11] (Homo sapiens, A549, 48 h), 15.7 ± 0.6 µM; in [11], 12.4 ± 0.7 µM; in [12] (Homo sapiens, HeLa, 48 h, MTT, mean ± SD (n = 3)) it was 11.5 ± 1.2 µM. For the same compound, in data set [11] (ratio of IC50 in BEAS-2B cells to IC50 in A549 cells), the “SI (A549)” value was 8.06 ± 0.03 and 8.06 ± 0.10. In addition, the “SI (HeLa)” value in [12] (ratio of IC50 in BEAS-2B cells to IC50 in HeLa cells) is 8.70 ± 0.20. The “Expression of anti-apoptotic genes (BCL2, BCL-XL, MCL1)” value in [13] and in [14] was “notable downregulation” throughout. For the same compound, the “Expression of pro-apoptotic genes (CASP3, CASP8, CASP9, BAX, BAK1, PUMA, NOXA, CYCS) and cell cycle/stress genes (TP53, CDKN1A, FAS, GADD45A, ATF4)” value in [13] and in data set [14] was “significant upregulation” throughout. Moreover, the “Protein level of BCL-2” value in data set [15] and in data set [16] was “marked decrease” throughout. Besides, the “Protein levels of Caspase-3, BAX and Cytochrome C” value in [15] and in data set [16] was “significant increases” each time. The “Antibiofilm activity Escherichia coli” value in data set [6] is “did not show antibiofilm activity and –”. Besides, in [7], the “Antibiofilm activity Pseudomonas aeruginosa” value is “did not show antibiofilm activity and –”. Also, the “Antibiofilm activity Staphylococcus aureus” value in data set [8] was “did not show antibiofilm activity and –”. In [17], the “Antibiofilm activity Candida albicans” value is given as 0.5–13.7%. Besides, the “Antibiofilm activity Enterococcus faecalis” value in [9] was 1.08–14.7%.
Consider `OC(Cn1cncn1)(Cn1cncn1)c1ccc(F)cc1F` [Fluconazole, fluconazole, reference compound], for which, in data set [18], the “Microbial growth in positive control wells” value is on record as “no microbial growth was observed”. Also, the “Antibiofilm activity Candida albicans” value in data set [17] came out at 29.10%.
